Key:
mice = conditions: cited from earlier work
[1] = Conversion of Formula (I) compounds to HNK upon administration to a subject; assay type: in vivo; conditions: possible two-step process: hydrolysis under acid conditions, then enzymatic conversion by esterase action
Excerpt: In this prophetic example, exemplary compounds of Formula (I) yield HNK upon administration to a subject, such as a patient in a clinical trial, in one or more steps. For example, in one possible pathway illustrated in the following schematic, exemplary compounds of Formula (I) may yield HNK in a two-step process, consisting of hydrolysis in Step 1 under acid conditions, such as those in the stomach, and subsequent enzymatic conversion by esterase action.

N[C@@]1(c2ccccc2Cl)CCC[C@@H](O)C1=O [(2R,6R)-hydroxynorketamine]
antidepressant activity (mice): has antidepressant activity

CC(O)C1=N[C@@]2(c3ccccc3Cl)CCC[C@@H](O1)C2=O (stereo partly drawn) [Example 2, (1R,5R)-5-(2-chlorophenyl)-3-(1-hydroxyethyl)-2-oxa-4 azabicyclo[3.3.1]non-3-en-9-one]
conversion to HNK upon administration [1]: may give rise to HNK and lactic acid

— patent publication US10738018B2, “Compounds for therapeutic use” (Dart NeuroScience, LLC, priority 2016, dated 2020)
